Test results reported in ChEMBL document CHEMBL4725376, “Identification of the first noncompetitive SARM1 inhibitors” (Bioorg Med Chem, 2020).
Where a name gives a salt, the structure may show the parent alone.

Columns and labels:
Assay type in all cases: subcellular
[1] = molecular target: T1, NAD(+) hydrolase SARM1 (Homo sapiens) (UniProt Q6SZW1); test: Inhibition of recombinant human SARM1 TIR domain (561 to 724 residues) expressed in Escherichia coli C43 (DE3) cells lysates using ENAD as substrate at 25 uM preincubated for 20 mins followed by ENAD addition and measured after 1 hr relative to control
T1 sequence (whole entry): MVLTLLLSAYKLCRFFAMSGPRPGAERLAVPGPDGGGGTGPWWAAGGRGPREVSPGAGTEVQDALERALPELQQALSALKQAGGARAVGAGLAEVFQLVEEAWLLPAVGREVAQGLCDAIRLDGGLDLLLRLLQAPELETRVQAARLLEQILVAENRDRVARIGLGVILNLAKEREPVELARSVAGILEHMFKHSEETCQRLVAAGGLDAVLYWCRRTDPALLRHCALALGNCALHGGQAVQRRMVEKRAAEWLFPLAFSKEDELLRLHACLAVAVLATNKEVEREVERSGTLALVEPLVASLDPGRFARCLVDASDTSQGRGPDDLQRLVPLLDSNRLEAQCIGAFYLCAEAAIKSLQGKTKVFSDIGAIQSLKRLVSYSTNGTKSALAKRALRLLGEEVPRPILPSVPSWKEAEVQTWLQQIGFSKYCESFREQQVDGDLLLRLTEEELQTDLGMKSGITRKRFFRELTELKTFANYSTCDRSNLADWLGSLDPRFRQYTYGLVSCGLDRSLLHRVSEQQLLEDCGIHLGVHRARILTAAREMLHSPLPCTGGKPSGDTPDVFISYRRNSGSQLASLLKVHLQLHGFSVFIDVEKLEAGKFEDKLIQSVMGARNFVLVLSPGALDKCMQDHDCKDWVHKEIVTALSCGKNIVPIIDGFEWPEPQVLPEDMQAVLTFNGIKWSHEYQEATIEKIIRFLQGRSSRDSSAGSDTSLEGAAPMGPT

NAD(+) hydrolase SARM1 [2] = molecular target: T2, NAD(+) hydrolase SARM1 (Homo sapiens, UniProt Q6SZW1); test: Competitive inhibition of recombinant human SARM1 TIR domain (561 to 724 residues) expressed in Escherichia coli C43 (DE3) cells lysates assessed as EADPR formation using ENAD as substrate preincubated for 20 mins followed by ENAD addition and measured at 15 sec interval for 1 hr
T2 sequence (Q6SZW1 whole entry): T1 sequence (whole entry)

NAD(+) hydrolase SARM1 [3] = molecular target: T2, NAD(+) hydrolase SARM1; test: Inhibition of recombinant human SARM1 TIR domain (561 to 724 residues) expressed in Escherichia coli C43 (DE3) cells lysates using ENAD as substrate preincubated for 20 mins followed by ENAD addition and measured at 15 sec interval for 15 mins
NAD(+) hydrolase SARM1 [4] = molecular target: T2, NAD(+) hydrolase SARM1; test: Noncompetitive inhibition of recombinant human SARM1 TIR domain (561 to 724 residues) expressed in Escherichia coli C43 (DE3) cells lysates assessed as EADPR formation using ENAD as substrate preincubated for 20 mins followed by ENAD addition and measured at 15 sec interval for 1 hr

Work on `C[C@H]1c2cccc(O)c2C(=O)C2=C(O)[C@]3(O)C(=O)C(C(N)=O)=C(O)[C@@H](N(C)C)[C@@H]3[C@@H](O)[C@@H]21` yielded an inhibition [1] of 26%.
Molecule `Nc1ccc(/N=N/c2ccccc2)c(N)n1` [PHENAZOPYRIDINE HYDROCHLORIDE] has an inhibition [1] of 44% and a Ki (NAD(+) hydrolase SARM1 [2]) of 70 µM.
With `NC(=O)N/N=C/c1ccc([N+](=O)[O-])o1` [NITROFURAZONE] the inhibition [1] was 27%, the IC50 (NAD(+) hydrolase SARM1 [3]) was 90 µM and the Ki (NAD(+) hydrolase SARM1 [4]) was 120 µM.
